Data: the NIST ThermoML archive (doi:10.1016/j.tca.2010.11.002)

What was measured:
[1] = mn = molality of the nth substance listed, in mol/kg; conditions: 101 kPa, Liquid, Vibrating tube method
[2] = Liquid, Vibrating tube method

CN1CCCN(C)C1=O [1,3-dimethyl-3,4,5,6-tetrahydro-2(1H)-pyrimidinone] + [2H]O[2H]
mass density [kg/m3], [1]
Conditions	278.15 K	288.15 K	298.15 K	308.15 K	313.15 K	318.15 K
m1 = 0.0599	1105.6	1105.78	1104.3	1101.53	1099.72	1097.69
m1 = 0.08344	1105.61	1105.76	1104.25	1101.47	1099.64	1097.6
m1 = 0.1212	1105.63	1105.73	1104.18	1101.36	1099.52	1097.47
m1 = 0.1641	1105.66	1105.71	1104.11	1101.25	1099.39	1097.32
m1 = 0.2214	1105.72	1105.69	1104.03	1101.11	1099.23	1097.13
m1 = 0.3291	1105.85	1105.68	1103.9	1100.88	1098.96	1096.82
m1 = 0.5024	1106.17	1105.76	1103.77	1100.59	1098.6	1096.39
m1 = 0.6557	1106.53	1105.89	1103.73	1100.4	1098.34	1096.07
m1 = 0.7789	1106.85	1106.03	1103.73	1100.28	1098.17	1095.85
m1 = 0.9405	1107.31	1106.25	1103.76	1100.16	1097.99	1095.61
m1 = 1.074	1107.69	1106.44	1103.81	1100.09	1097.86	1095.43

[2H]O[2H] [water-d2] + CN1CCCN(C)C1=O
[1], m2 = 0
Conditions	mass density [kg/m3]
278.15 K	1105.59
288.15 K	1105.85
298.15 K	1104.43
308.15 K	1101.72
313.15 K	1099.93
318.15 K	1097.92

CN1CCCN(C)C1=O [1,3-dimethyl-3,4,5,6-tetrahydro-2(1H)-pyrimidinone]
[2], 101.33 kPa
Conditions	mass density [kg/m3]
278.15 K	1076.18
288.15 K	1067.81
298.15 K	1059.46
308.15 K	1051.12
313.15 K	1046.95
318.15 K	1042.78

[2H]O[2H] [water-d2]
[2], 101 kPa
Conditions	mass density [kg/m3]
278.15 K	1105.59
288.15 K	1105.85
298.15 K	1104.43
308.15 K	1101.72
313.15 K	1099.93
318.15 K	1097.92

CN1CCCN(C)C1=O [1,3-dimethyl-3,4,5,6-tetrahydro-2(1H)-pyrimidinone] + O
mass density [kg/m3], [1]
Conditions	278.15 K	288.15 K	298.15 K	308.15 K	313.15 K	318.15 K
m1 = 0.03864	1000.41	999.51	997.43	994.38	992.55	990.54
m1 = 0.07586	1000.85	999.91	997.79	994.72	992.88	990.86
m1 = 0.1037	1001.18	1000.21	998.07	994.98	993.12	991.09
m1 = 0.1575	1001.83	1000.8	998.61	995.48	993.6	991.55
m1 = 0.2215	1002.6	1001.51	999.26	996.08	994.18	992.11
m1 = 0.2812	1003.34	1002.17	999.87	996.64	994.72	992.63
m1 = 0.407	1004.9	1003.6	1001.17	997.84	995.87	993.74
m1 = 0.5303	1006.46	1005.01	1002.46	999.04	997.02	994.85
m1 = 0.6771	1008.32	1006.7	1004.01	1000.47	998.39	996.17
m1 = 0.8298	1010.25	1008.46	1005.62	1001.96	999.83	997.56
m1 = 0.9878	1012.23	1010.27	1007.28	1003.5	1001.31	998.99
